# From publication PMC6925601 (European journal of medicinal chemistry, 2019)
# How the values were obtained:
# [1] = target: T1, human neutrophil elastase (HNE) (Homo sapiens, UniProt P08246); assay: HNE inhibitory assay; type: biochemical
# T1 sequence (P08246 30-247 limits assumed): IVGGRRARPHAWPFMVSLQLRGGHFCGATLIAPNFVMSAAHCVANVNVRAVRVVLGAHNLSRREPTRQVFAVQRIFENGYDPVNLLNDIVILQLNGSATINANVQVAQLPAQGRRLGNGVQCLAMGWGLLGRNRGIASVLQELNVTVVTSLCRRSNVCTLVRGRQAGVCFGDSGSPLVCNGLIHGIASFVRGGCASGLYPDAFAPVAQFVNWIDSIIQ
# [2] = tested on: THP-1 monocytic leukemia cells; assay: Anticancer cell cytotoxicity assay; type: cell-based; conditions: Homo sapiens, THP-1, 24 h, read-out: THP-1 IC50 (μM)
# [3] = tested on: MonoMac6 monocytic leukemia cells; assay: Anticancer cell cytotoxicity assay; type: cell-based; conditions: Homo sapiens, MONO-MAC-6, 24 h, read-out: MonoMac6 IC50 (μM)
# [4] = tested on: HL60 promyelocytic leukemia cells; assay: Anticancer cell cytotoxicity assay; type: cell-based; conditions: Homo sapiens, HL-60, 24 h, read-out: HL60 IC50 (μM)
# [5] = tested on: SW-982 synovial sarcoma cells; assay: Anticancer cell cytotoxicity assay; type: cell-based; conditions: Homo sapiens, SW982, 24 h, read-out: SW-982 IC50 (μM)
# [6] = tested on: Jurkat T cells; assay: Anticancer cell cytotoxicity assay; type: cell-based; conditions: Homo sapiens, 24 h, read-out: Jurkat IC50 (μM)
# [7] = tested on: U936; assay: Anticancer cell cytotoxicity assay; type: cell-based; conditions: Homo sapiens, 24 h, read-out: U936 IC50 (μM)
# [8] = tested on: MCF7 breast adenocarcinoma cells; assay: Anticancer cell cytotoxicity assay; type: cell-based; conditions: Homo sapiens, MCF7, 24 h, read-out: MCF7 IC50 (μM)
# [9] = tested on: LS174T colorectal adenocarcinoma cells; assay: Anticancer cell cytotoxicity assay; type: cell-based; conditions: Homo sapiens, 24 h, read-out: LS174T IC50 (μM)
# [10] = tested on: A549 lung carcinoma cells; assay: Anticancer cell cytotoxicity assay; type: cell-based; conditions: Homo sapiens, A549, 24 h, read-out: A549 IC50 (μM)
# [11] = tested on: primary peripheral blood mononuclear cells (PBMCs); assay: Cytotoxicity assay; type: cell-based; conditions: Homo sapiens, PBMC, 24 h, read-out: PBMCs IC50 (μM)
# [12] = tested on: nine tumor cell lines and primary PBMCs; assay: Cytotoxicity across the panel of nine tumor cell lines and PBMCs; type: cell-based, human; conditions: 24 h, up to 50 μM
# [13] = target: T2, MKK7 (Homo sapiens, UniProt O14733); assay: KINOMEscan kinase binding assay
# T2 sequence (O14733 1-419): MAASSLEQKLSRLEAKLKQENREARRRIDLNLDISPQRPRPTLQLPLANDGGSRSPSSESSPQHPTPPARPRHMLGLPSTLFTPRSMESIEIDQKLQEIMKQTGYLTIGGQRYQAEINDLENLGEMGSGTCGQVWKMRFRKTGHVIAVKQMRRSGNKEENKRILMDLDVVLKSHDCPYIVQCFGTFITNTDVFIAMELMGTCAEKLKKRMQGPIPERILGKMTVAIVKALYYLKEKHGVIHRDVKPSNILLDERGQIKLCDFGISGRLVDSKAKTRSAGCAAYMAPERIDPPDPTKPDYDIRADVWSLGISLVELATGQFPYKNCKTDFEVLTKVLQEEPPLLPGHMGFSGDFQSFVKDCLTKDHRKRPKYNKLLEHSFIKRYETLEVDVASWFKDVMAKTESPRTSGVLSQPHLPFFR
compound,measurement,setting,value
"CC(C)=CCC1=C(O)C(=O)c2ccccc2C1=O [Compound 3, lapachol]",IC50,[1],> 50 µM
same,IC50,[2],> 50 µM
same,IC50,[3],> 50 µM
same,IC50,[4],> 50 µM
same,IC50,[5],> 50 µM
same,IC50,[6],> 50 µM
same,IC50,[7],> 50 µM
same,IC50,[8],> 50 µM
same,IC50,[9],> 50 µM
same,IC50,[10],> 50 µM
same,IC50,[11],> 50 µM
same,cytotoxicity toward tumor cell lines and PBMCs (in words),[12],did not find any toxicity
same,Kd,[13],> 30 µM
same,Kd (μM) vs MKK7,"[13]; KINOMEscan, duplicate, maximum concentration 30 μM",did not bind
